Experimental data taken from patent publication US9636418B2 (priority 2013, dated 2017).
“And” between values parts separate entries of the source, which are not always exact repeats. Equal values may be shown once. Read-outs that look alike come from different tables or passages of the source.

How the values were obtained:
Assay in all cases: cell-based
[1] = biological target: T1, hNav1.5 (Homo sapiens, UniProt Q14524); details: IonWorks Quattro; read-out: IC50 Nav1.5
[2] = biological target: T2, hNav1.7 (Homo sapiens, UniProt Q15858); details: IonWorks Quattro; read-out: IC50 Nav1.7
[3] = biological target: T2, hNav1.7; assay type: cell-based; details: PatchXpress; * = at high concentrations compound would wash off slowly or not at all; read-out: PX hNav1.7 Tonic IC50
[4] = biological target: T3, hNav1.4 (Homo sapiens, UniProt P35499); details: for IC50: PatchXpress, * = at high concentrations compound would wash off slowly or not at all, read-out: PX hNav1.4 Tonic IC50; for Nav1.4/Nav1.7: ratio of PX IC50 values
[5] = biological target: hNav1.3 (Homo sapiens, UniProt Q9NY46); details: IonWorks Quattro; read-out: IC50 Nav1.3
[6] = biological target: T1, hNav1.5; details: PatchXpress; * = at high concentrations compound would wash off slowly or not at all; read-out: PX hNav1.5 Tonic IC50
[7] = biological target: T3, hNav1.4; details: for IC50: IonWorks Quattro, read-out: IC50 Nav1.4; for Nav1.4/Nav1.7: ratio of IonWorks Quattro IC50 values

Sequence of hNav1.3 (Q9NY46 whole entry): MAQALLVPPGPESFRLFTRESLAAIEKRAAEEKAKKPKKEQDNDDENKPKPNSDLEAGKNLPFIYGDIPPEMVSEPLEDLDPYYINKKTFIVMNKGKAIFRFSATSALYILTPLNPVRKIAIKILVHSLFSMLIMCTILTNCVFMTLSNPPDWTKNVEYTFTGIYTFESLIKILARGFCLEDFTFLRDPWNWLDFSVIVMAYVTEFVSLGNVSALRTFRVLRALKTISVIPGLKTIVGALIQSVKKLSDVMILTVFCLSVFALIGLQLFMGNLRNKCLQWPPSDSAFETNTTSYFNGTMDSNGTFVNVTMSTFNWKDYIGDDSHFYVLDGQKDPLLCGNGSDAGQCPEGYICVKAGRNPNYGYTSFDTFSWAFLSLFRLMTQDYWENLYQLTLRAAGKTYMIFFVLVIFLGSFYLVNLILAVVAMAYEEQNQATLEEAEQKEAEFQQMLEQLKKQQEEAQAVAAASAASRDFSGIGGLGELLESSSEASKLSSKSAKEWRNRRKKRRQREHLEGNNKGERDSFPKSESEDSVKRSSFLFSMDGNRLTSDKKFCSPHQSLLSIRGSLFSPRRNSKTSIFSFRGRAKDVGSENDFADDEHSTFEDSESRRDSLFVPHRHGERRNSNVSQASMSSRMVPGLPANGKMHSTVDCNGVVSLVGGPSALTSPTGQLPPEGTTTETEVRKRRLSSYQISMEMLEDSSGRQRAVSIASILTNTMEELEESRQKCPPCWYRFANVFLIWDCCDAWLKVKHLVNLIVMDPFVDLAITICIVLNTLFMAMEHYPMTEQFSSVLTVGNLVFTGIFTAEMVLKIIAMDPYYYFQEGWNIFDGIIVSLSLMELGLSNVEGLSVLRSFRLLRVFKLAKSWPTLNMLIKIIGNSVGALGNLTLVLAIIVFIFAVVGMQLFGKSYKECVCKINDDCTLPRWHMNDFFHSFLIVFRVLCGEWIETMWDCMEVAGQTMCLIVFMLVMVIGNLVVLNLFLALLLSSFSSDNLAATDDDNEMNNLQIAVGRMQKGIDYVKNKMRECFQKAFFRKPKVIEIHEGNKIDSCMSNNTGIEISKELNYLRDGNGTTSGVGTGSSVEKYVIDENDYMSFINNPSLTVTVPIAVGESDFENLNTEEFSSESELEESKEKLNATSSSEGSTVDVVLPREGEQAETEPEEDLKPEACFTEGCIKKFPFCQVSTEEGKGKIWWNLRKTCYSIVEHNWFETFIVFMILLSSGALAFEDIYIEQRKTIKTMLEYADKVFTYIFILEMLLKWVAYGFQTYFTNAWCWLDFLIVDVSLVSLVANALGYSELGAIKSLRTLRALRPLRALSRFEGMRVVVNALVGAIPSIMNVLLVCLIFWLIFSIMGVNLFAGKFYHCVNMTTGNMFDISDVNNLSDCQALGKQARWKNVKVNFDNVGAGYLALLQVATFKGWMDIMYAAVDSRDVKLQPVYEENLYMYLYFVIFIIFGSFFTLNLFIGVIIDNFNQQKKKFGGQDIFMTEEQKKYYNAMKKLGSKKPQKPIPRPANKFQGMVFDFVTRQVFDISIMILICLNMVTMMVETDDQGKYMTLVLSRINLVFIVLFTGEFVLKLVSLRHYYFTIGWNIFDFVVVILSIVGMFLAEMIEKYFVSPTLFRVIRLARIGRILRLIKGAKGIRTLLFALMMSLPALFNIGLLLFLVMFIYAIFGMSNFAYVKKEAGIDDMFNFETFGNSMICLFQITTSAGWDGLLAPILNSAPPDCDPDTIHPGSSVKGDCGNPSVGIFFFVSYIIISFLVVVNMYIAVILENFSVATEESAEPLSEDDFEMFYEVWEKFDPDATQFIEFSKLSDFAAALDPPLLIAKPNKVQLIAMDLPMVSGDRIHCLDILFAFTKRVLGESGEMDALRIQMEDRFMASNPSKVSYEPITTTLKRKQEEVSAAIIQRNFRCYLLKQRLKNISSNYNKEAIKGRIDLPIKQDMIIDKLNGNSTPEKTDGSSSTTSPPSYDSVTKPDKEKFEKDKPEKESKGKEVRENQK
T2 sequence (Q15858 whole entry): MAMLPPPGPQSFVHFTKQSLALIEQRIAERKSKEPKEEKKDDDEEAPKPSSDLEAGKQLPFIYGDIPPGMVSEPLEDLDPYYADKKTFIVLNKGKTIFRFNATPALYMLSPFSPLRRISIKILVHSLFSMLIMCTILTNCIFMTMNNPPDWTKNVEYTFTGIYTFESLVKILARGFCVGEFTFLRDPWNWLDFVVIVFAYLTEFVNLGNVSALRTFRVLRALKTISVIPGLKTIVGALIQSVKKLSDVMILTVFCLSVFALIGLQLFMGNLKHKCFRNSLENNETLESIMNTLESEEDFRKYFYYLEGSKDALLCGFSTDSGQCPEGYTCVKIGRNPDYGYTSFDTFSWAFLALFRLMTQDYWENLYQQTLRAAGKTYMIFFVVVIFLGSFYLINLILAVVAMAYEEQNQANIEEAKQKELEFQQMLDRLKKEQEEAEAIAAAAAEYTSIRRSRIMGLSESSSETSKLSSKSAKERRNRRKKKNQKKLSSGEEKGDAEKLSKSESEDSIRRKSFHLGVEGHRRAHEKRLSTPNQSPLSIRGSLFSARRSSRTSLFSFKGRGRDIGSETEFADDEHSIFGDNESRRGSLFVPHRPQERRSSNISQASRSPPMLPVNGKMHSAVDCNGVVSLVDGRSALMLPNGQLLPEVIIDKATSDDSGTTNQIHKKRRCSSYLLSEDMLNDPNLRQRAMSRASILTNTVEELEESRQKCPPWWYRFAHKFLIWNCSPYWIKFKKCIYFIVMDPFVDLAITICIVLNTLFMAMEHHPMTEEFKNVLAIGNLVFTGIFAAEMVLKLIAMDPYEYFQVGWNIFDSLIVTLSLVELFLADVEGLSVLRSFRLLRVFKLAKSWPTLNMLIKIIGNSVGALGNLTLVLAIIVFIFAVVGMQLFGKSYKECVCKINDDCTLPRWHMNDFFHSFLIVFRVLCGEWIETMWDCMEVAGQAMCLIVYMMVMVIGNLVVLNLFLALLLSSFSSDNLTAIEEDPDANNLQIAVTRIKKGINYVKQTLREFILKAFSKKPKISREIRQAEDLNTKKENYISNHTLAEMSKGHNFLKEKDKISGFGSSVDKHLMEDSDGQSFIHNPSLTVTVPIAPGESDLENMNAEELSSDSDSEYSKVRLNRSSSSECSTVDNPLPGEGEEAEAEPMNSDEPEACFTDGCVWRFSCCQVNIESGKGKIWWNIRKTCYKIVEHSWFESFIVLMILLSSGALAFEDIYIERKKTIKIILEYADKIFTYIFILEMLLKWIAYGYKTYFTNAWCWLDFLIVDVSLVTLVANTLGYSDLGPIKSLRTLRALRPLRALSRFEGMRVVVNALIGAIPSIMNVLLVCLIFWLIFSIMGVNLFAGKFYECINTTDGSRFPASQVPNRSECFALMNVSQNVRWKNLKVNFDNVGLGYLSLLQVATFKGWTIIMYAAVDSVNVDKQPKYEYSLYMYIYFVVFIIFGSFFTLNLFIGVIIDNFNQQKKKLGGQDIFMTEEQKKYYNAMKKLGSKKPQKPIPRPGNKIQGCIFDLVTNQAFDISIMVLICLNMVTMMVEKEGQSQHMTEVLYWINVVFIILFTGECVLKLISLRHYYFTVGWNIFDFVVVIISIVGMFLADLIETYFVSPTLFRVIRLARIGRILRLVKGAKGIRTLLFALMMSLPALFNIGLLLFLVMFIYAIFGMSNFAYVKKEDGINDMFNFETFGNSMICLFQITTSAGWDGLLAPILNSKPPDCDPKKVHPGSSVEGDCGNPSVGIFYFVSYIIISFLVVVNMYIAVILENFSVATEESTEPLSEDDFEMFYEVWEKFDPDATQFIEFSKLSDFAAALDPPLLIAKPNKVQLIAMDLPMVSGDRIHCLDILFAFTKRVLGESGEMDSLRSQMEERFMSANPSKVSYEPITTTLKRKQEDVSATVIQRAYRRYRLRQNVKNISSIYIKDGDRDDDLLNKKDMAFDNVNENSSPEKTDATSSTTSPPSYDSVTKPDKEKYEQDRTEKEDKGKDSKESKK

SMILES	IC50 [1]	IC50 [2]	IC50 [3]	IC50 [4]	IC50 [5]	IC50 [6]	IC50 [7]	Nav1.4/Nav1.7 [7]	Nav1.4/Nav1.7 [4]
CC[C@H](C)[C@H](NC(=O)[C@@H](NC(=O)[C@H](CCCCN)NC(=O)[C@H](CCCNC(=N)N)NC(=O)[C@@H]1CSSC[C@@H]2NC(=O)[C@H](C)NC(=O)[C@H](CCCNC(=N)N)NC(=O)[C@H](CCCCN)NC(=O)[C@H](CO)NC(=O)[C@H](CC(=O)O)NC(=O)[C@@H]3CSSC[C@H](NC(=O)[C@H](Cc4ccc(O)cc4)NC(=O)[C@H](CC(C)C)NC(=O)CNC(=O)[C@H](CCC(=O)O)NC(=O)[C@H](CSSC[C@H](NC(=O)[C@@H](N)Cc4ccc(O)cc4)C(=O)N[C@@H](CCC(N)=O)C(=O)N[C@@H](CCCCN)C(=O)N[C@@H](Cc4c[nH]c5ccccc45)C(=O)N[C@@H](CCSC)C(=O)N[C@@H](Cc4c[nH]c5ccccc45)C(=O)N[C@@H]([C@@H](C)O)C(=O)N3)NC2=O)C(=O)N[C@@H](CCCCN)C(=O)N[C@@H](CC(C)C)C(=O)N[C@@H](Cc2c[nH]c3ccccc23)C(=O)N1)[C@@H](C)CC)C(N)=O [compound 124]	10800 nM	90 nM	5.9 nM	1570 nM	> 5000 nM	> 10000 nM	4000 nM	43	
CC[C@H](C)[C@H](NC(=O)[C@@H](NC(=O)[C@H](CCCCN)NC(=O)[C@H](CCCNC(=N)N)NC(=O)[C@@H]1CSSC[C@@H]2NC(=O)[C@H](C)NC(=O)[C@H](CCCNC(=N)N)NC(=O)[C@H](CCCCN)NC(=O)[C@H](CO)NC(=O)[C@H](CC(=O)O)NC(=O)[C@@H]3CSSC[C@H](NC(=O)[C@H](CCC(=O)O)NC(=O)[C@H](CC(C)C)NC(=O)CNC(=O)[C@H](CCC(=O)O)NC(=O)[C@H](CSSC[C@H](NC(=O)[C@@H](N)Cc4ccc(O)cc4)C(=O)N[C@@H](CCC(N)=O)C(=O)N[C@@H](CCCCN)C(=O)N[C@@H](Cc4c[nH]c5ccccc45)C(=O)N[C@@H](CCSC)C(=O)N[C@@H](Cc4c[nH]c5ccccc45)C(=O)N[C@@H]([C@@H](C)O)C(=O)N3)NC2=O)C(=O)N[C@@H](CCCCN)C(=O)N[C@@H](CC(C)C)C(=O)N[C@@H](Cc2c[nH]c3ccccc23)C(=O)N1)C(C)C)C(N)=O [compound 133]	12000 nM	80 nM	4.1 nM	1310 nM	4850 nM	5500 nM	4000 nM	51	320
CC[C@H](C)[C@H](NC(=O)[C@H](CCCNC(N)=O)NC(=O)[C@H](CCCCN)NC(=O)[C@H](CCCNC(=N)N)NC(=O)[C@@H]1CSSC[C@@H]2NC(=O)[C@H](C)NC(=O)[C@H](CCCNC(=N)N)NC(=O)[C@H](CCCCN)NC(=O)[C@H](CO)NC(=O)[C@H](CC(=O)O)NC(=O)[C@@H]3CSSC[C@H](NC(=O)[C@H](CCC(=O)O)NC(=O)[C@H](CC(C)C)NC(=O)CNC(=O)[C@H](CCC(=O)O)NC(=O)[C@H](CSSC[C@H](NC(=O)[C@@H](N)Cc4ccc(O)cc4)C(=O)N[C@@H](CCC(N)=O)C(=O)N[C@@H](CCCCN)C(=O)N[C@@H](Cc4c[nH]c5ccccc45)C(=O)N[C@@H](CCSC)C(=O)N[C@@H](Cc4c[nH]c5ccccc45)C(=O)N[C@@H]([C@@H](C)O)C(=O)N3)NC2=O)C(=O)N[C@@H](CCCCN)C(=O)N[C@@H](CC(C)C)C(=O)N[C@@H](Cc2c[nH]c3ccccc23)C(=O)N1)C(N)=O [compound 135]	12000 nM	110 nM	5.6 nM	6020 nM	> 5000 nM	> 10000 nM	> 5000 nM	46	
CCC[C@H](NC(=O)[C@H](CCCCN)NC(=O)[C@H](CCCNC(=N)N)NC(=O)[C@@H]1CSSC[C@@H]2NC(=O)[C@H](C)NC(=O)[C@H](CCCNC(=N)N)NC(=O)[C@H](CCCCN)NC(=O)[C@H](CO)NC(=O)[C@H](CC(=O)O)NC(=O)[C@@H]3CSSC[C@H](NC(=O)[C@H](CCC(=O)O)NC(=O)[C@H](CC(C)C)NC(=O)CNC(=O)[C@H](CCC(=O)O)NC(=O)[C@H](CSSC[C@H](NC(=O)[C@@H](N)Cc4ccc(O)cc4)C(=O)N[C@@H](CCC(N)=O)C(=O)N[C@@H](CCCCN)C(=O)N[C@@H](Cc4c[nH]c5ccccc45)C(=O)N[C@@H](CCSC)C(=O)N[C@@H](Cc4c[nH]c5ccccc45)C(=O)N[C@@H]([C@@H](C)O)C(=O)N3)NC2=O)C(=O)N[C@@H](CCCCN)C(=O)N[C@@H](CC(C)C)C(=O)N[C@@H](Cc2c[nH]c3ccccc23)C(=O)N1)C(=O)N[C@H](C(N)=O)[C@@H](C)CC [compound 136]	8900 nM and 15800 nM	80 nM and 150 nM	12.8 nM	5190 nM	> 5000 nM	7820 nM	> 5000 nM	66 and 34	
CC[C@H](C)[C@H](NC(=O)[C@H](Cc1ccc(O)cc1)NC(=O)[C@H](CCCCN)NC(=O)[C@H](CCCNC(=N)N)NC(=O)[C@@H]1CSSC[C@@H]2NC(=O)[C@H](C)NC(=O)[C@H](CCCNC(=N)N)NC(=O)[C@H](CCCCN)NC(=O)[C@H](CO)NC(=O)[C@H](CC(=O)O)NC(=O)[C@@H]3CSSC[C@H](NC(=O)[C@H](CCC(=O)O)NC(=O)[C@H](CC(C)C)NC(=O)CNC(=O)[C@H](CCC(=O)O)NC(=O)[C@H](CSSC[C@H](NC(=O)[C@@H](N)Cc4ccc(O)cc4)C(=O)N[C@@H](CCC(N)=O)C(=O)N[C@@H](CCCCN)C(=O)N[C@@H](Cc4c[nH]c5ccccc45)C(=O)N[C@@H](CCSC)C(=O)N[C@@H](Cc4c[nH]c5ccccc45)C(=O)N[C@@H]([C@@H](C)O)C(=O)N3)NC2=O)C(=O)N[C@@H](CCCCN)C(=O)N[C@@H](CC(C)C)C(=O)N[C@@H](Cc2c[nH]c3ccccc23)C(=O)N1)C(N)=O [compound 137]	8000 nM	90 nM	0.9 nM	1270 nM	2010 nM	11400 nM	> 3500 nM	41	
CC[C@H](C)[C@H](NC(=O)[C@H](Cc1ccc(O)cc1)NC(=O)[C@H](CCCCN)NC(=O)[C@H](CCCNC(=N)N)NC(=O)[C@@H]1CSSC[C@@H]2NC(=O)[C@H](C)NC(=O)[C@H](CCCNC(=N)N)NC(=O)[C@H](CCCCN)NC(=O)[C@H](CO)NC(=O)[C@H](CC(=O)O)NC(=O)[C@@H]3CSSC[C@H](NC(=O)[C@H](CCC(=O)O)NC(=O)[C@H](CC(C)C)NC(=O)CNC(=O)[C@H](CCC(=O)O)NC(=O)[C@H](CSSC[C@H](NC(=O)[C@@H](N)Cc4ccc(O)cc4)C(=O)N[C@@H](CCC(N)=O)C(=O)N[C@@H](CCCCN)C(=O)N[C@@H](Cc4ccc(I)cc4)C(=O)N[C@@H](CCSC)C(=O)N[C@@H](Cc4c[nH]c5ccccc45)C(=O)N[C@@H]([C@@H](C)O)C(=O)N3)NC2=O)C(=O)N[C@@H](CCCCN)C(=O)N[C@@H](CC(C)C)C(=O)N[C@@H](Cc2c[nH]c3ccccc23)C(=O)N1)C(N)=O [compound 192]	> 5000 nM	110 nM	2.2 nM	172 nM	1300 nM	> 1000 nM	3400 nM	30	78
CC[C@H](C)[C@H](NC(=O)[C@H](Cc1ccc(O)cc1)NC(=O)[C@H](CCCCN)NC(=O)[C@H](CCCNC(=N)N)NC(=O)[C@@H]1CSSC[C@@H]2NC(=O)[C@H](C)NC(=O)[C@H](CCCNC(=N)N)NC(=O)[C@H](CCCCN)NC(=O)[C@H](CO)NC(=O)[C@H](CC(=O)O)NC(=O)[C@@H]3CSSC[C@H](NC(=O)[C@H](CCC(=O)O)NC(=O)[C@H](CC(C)C)NC(=O)CNC(=O)[C@H](CCC(=O)O)NC(=O)[C@H](CSSC[C@H](NC(=O)[C@@H](N)Cc4ccc(O)cc4)C(=O)N[C@@H](CCC(N)=O)C(=O)N[C@@H](CCCCN)C(=O)N[C@@H](Cc4ccccc4)C(=O)N[C@@H](CCSC)C(=O)N[C@@H](Cc4c[nH]c5ccccc45)C(=O)N[C@@H]([C@@H](C)O)C(=O)N3)NC2=O)C(=O)N[C@@H](CCCCN)C(=O)N[C@@H](CC(C)C)C(=O)N[C@@H](Cc2c[nH]c3ccccc23)C(=O)N1)C(N)=O [compound 193]	> 5000 nM	160 nM and 230 nM	4.6 nM	1000 nM	> 5000 nM	> 1000 nM	> 5000 nM		
CC[C@H](C)[C@H](NC(=O)[C@H](Cc1ccc(O)cc1)NC(=O)[C@H](CCCCN)NC(=O)[C@H](CCCNC(=N)N)NC(=O)[C@@H]1CSSC[C@@H]2NC(=O)[C@H](C)NC(=O)[C@H](CCCNC(=N)N)NC(=O)[C@H](CCCCN)NC(=O)[C@H](CO)NC(=O)[C@H](CC(=O)O)NC(=O)[C@@H]3CSSC[C@H](NC(=O)[C@H](CCC(=O)O)NC(=O)[C@H](CC(C)C)NC(=O)CNC(=O)[C@H](CCC(=O)O)NC(=O)[C@H](CSSC[C@H](NC(=O)[C@@H](N)Cc4ccc(O)cc4)C(=O)N[C@@H](CCC(N)=O)C(=O)N[C@@H](CCCCN)C(=O)N[C@@H](Cc4c[nH]c5ccccc45)C(=O)N[C@@H](CCSC)C(=O)N[C@@H](Cc4c[nH]c5ccccc45)C(=O)N[C@@H]([C@@H](C)O)C(=O)N3)NC2=O)C(=O)N[C@@H](CCCCN)C(=O)N[C@@H](CC(C)C)C(=O)N[C@@H](Cc2cccc3ccccc23)C(=O)N1)C(N)=O [compound 218]	> 7000 nM	300 nM	12 nM	5210 nM	> 7000 nM	10000 nM	> 7000 nM		
